# Measurements as given in PubChem BioAssay AID485337 (Sanford-Burnham Center for Chemical Genomics, 2010).
# Calls of active or inactive are those of the source. No rule for the calls is given here.
# Target: SUMO-conjugating enzyme UBC9 (Homo sapiens) (UniProt P63279)
# Assay: potency of SUMOylation cascade inhibitors, SAR follow-up, biochemical, HTRF, set 2 (AID 485337)
# Conditions: in vitro SUMOylation, HTRF read-out
# Chain of SUMO-conjugating enzyme UBC9 (Homo sapiens) (P63279 whole entry, looked up): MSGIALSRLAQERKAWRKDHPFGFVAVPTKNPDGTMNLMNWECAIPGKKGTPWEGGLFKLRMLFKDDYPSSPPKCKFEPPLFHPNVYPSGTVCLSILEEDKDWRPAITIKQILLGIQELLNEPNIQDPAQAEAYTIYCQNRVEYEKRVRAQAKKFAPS
row,Compound,IC50
1,COc1ccc2c(c1)C(NC(C)=O)C(=O)N2CCN1CCOCC1 (centres undefined),6.06 µM
2,COc1cc(/C=C2\C(=O)N(c3ccccc3)N=C2C)ccc1O,> 100 µM (inactive)
3,COc1ccc2c(c1)C(=O)C(=O)N2CCN1CCOCC1,> 100 µM (inactive)
4,CCCCn1c(NC(=O)c2ccccc2Cl)c(S(=O)(=O)c2ccccc2)c2nc3ccccc3nc21,37.6 µM
5,CCCCn1c(N)c(S(=O)(=O)c2ccc(C)cc2)c2nc3ccccc3nc21,9.28 µM
6,CCCCn1c(NC(=O)c2ccccc2)c(C#N)c2nc3ccccc3nc21,16.4 µM
7,CC(=O)NC1C(=O)N(CCN2CCOCC2)c2ccc(C)cc21 (centres undefined),> 100 µM (inactive)
8,CCCCn1c(NC(=O)c2ccco2)c(S(=O)(=O)c2ccc(C)cc2)c2nc3ccccc3nc21,12.5 µM
9,CCCCNC(=O)c1c(NC(=O)c2ccccc2)n(Cc2ccccc2)c2nc3ccccc3nc12,30.6 µM
10,CCCCCn1c(NC(=O)c2ccco2)c(C(=O)OCC)c2nc3ccccc3nc21,14.8 µM
11,COc1ccc2c(c1)C(NC(C)=O)C(=O)N2CC1COc2ccccc2O1 (centres undefined),> 100 µM (inactive)
12,S=c1[nH]nc(-c2cc(-c3ccccc3)n[nH]2)n1N=Cc1ccc(Br)s1,inactive
13,COc1ccc2c(c1)C(NC(C)=O)C(=O)N2CCOc1ccccc1 (centres undefined),> 100 µM (inactive)
14,Nc1c(C(=O)NCc2ccco2)c2nc3ccccc3nc2n1Cc1ccccc1,31.1 µM
15,COc1cc(/C=C2\C(=O)N(c3ccccc3)N=C2C)ccc1OC(=O)c1cccs1,> 100 µM (inactive)
16,CCCCn1c(NC(=O)c2ccc(Cl)cc2)c(C#N)c2nc3ccccc3nc21,22.6 µM
17,CCCCn1c(NC(C)=O)c(C#N)c2nc3ccccc3nc21,3.39 µM
18,COCCn1c(NC(=O)c2ccc(Cl)cc2)c(S(=O)(=O)c2ccc(C)cc2)c2nc3ccccc3nc21,78.8 µM
19,CCCN1C(=O)C(NC(C)=O)c2cc(OC)ccc21 (centres undefined),> 100 µM (inactive)
20,CCCCn1c(NC(=O)CC)c(S(=O)(=O)c2ccc(C)cc2)c2nc3ccccc3nc21,inactive
21,N#Cc1c(NC(=O)c2ccccc2Cl)n(Cc2ccccc2)c2nc3ccccc3nc12,12.2 µM
22,N#Cc1c(NC(=O)c2ccccc2Cl)n(C2CCCCC2)c2nc3ccccc3nc12,23.1 µM
23,COCCNC(=O)c1c(NC(=O)c2ccccc2)n(Cc2ccccc2)c2nc3ccccc3nc12,13.4 µM
24,CCCCn1c(NC(=O)c2ccco2)c(C#N)c2nc3ccccc3nc21,8.06 µM
25,COc1ccc2c(c1)C(NC(C)=O)C(=O)N2CCc1ccccc1 (centres undefined),> 100 µM (inactive)
26,COc1cc(/C=C2\C(=O)N(c3ccccc3)N=C2C)ccc1OCc1ccccc1,> 100 µM (inactive)
27,CCCCn1c(NC(=O)c2ccccc2)c(S(=O)(=O)c2ccc(C)cc2)c2nc3ccccc3nc21,inactive
28,Cc1cc(C)c2c(c1)C(=O)C(=O)N2CCN1CCOCC1,> 100 µM (inactive)
29,COc1ccc(CN2C(=O)C(NC(C)=O)c3ccccc32)cc1 (centres undefined),> 100 µM (inactive)
